For orientation: Papp B→A means how fast a substance crosses the layer from the basolateral side.

This note sets out measurements from PMC5874533 (Scientia Pharmaceutica, 2018).

The target in one data set is P-glycoprotein (P-gp) (Homo sapiens, UniProt P08183). The following applies: [^3H]-digoxin 1 μmol·L^−1, enisamium iodide 10 μmol·L^−1, Caco-2.
Data set [1] is described as follows: Caco-2 monolayer transport (permeability) study. Type of data set: in vitro ADME, human. The note with it: human; for Papp A→B at 120 min: Caco-2, pH 7.4, Caco-2, monolayer qualification marker, read-out: Papp (AB). The protocol: Cell culture. For the maintenance culture, Caco-2 cells were incubated at 37 °C, 5% CO2, and 90% relative humidity in 75 cm^2 culture flasks with supplemented Dulbecco's Modified Eagle's Medium (DMEM). The cells were passaged once a week using trypsin/ethylenediaminetetraacetic acid (EDTA) solution. Approximately 10^6 cells were seeded per flask. The culture medium was changed three times a week. For the transport studies, the Caco-2 cells were inoculated at a density of 60,000 cells/cm^2 on Transwell filter inserts and placed into 12-well flat-bottom cluster plates. The inserts (apical compartments) were supplied with 0.5 mL and the outer wells (basal compartments) with 1.5 mL of DMEM culture medium. The cells for the present transport study were cultured at 37 °C, 5% CO2 and 90% relative humidity in DMEM culture medium for 18 days until they formed confluent monolayers (31 passages). The culture medium was replaced every 2-3 days. […] Transport studies. […] All tests were carried out in triplicate. […] Testing of integrity of monolayers. Each batch of monolayer Caco-2 cells was inoculated and cultured under the same conditions on Transwell filter inserts in parallel. Qualification of intactness of the Caco-2 monolayer batches prior to the transport studies was carried out in triplicate for each transport condition using the selected transport markers fluorescein, [^3H]-propranolol and rhodamine 123. […] Mobile phase A consisted of 0.1% formic acid in water and mobile phase B of 0.1% formic acid in acetonitrile. […] The samples were kept at 10 °C and injected at a volume of 20 μL. The triple quad mass spectrometer system (Waters) was used in the positive (ESI^+) electrospray mode at 2.63 kV. […] Fluorescein and rhodamine 123 samples (100 μL) were determined by fluorescence reading. The samples were collected in 96 well microtiter plates. The fluorescence intensity was recorded by exciting the sample with light at 485 nm and measuring the emitted fluorescence at 535 nm. The fluorescence emission of a blank sample (Krebs-Ringer bicarbonate buffer (KRB) solution) was used as baseline.

Another data set concerns Caco-2 cells. The experiment in a line: Tolerability of enisamium iodide to Caco-2 cells (TEER). Type of data set: cell-based, human. The note with it: positive control. How it is done:
For this purpose, the cells were incubated with the highest dose supposed for the permeability studies (100 μM). After an incubation period of 120 min at 37 °C the TEER was checked to assess the integrity of the cell monolayers. […] All experiments were performed in triplicate. As a positive control, sodium dodecyl sulfate was used in this experiment.
The TEER was calculated according to TEER= Rc(A)=(Rc+f−Rf)A (Ω·cm^2). where Rc(A) is the electrical resistance of the monolayer with the area A (Ω cm^2); Rc+f is the electrical resistance of the monolayer including the filter (Ω); Rf is the electrical resistance of the filter without cells (Ω); and A is the area of the monolayer (cm^2).

Bounds are passed on as bounds.

P-glycoprotein (P-gp), sequence (P08183 whole entry): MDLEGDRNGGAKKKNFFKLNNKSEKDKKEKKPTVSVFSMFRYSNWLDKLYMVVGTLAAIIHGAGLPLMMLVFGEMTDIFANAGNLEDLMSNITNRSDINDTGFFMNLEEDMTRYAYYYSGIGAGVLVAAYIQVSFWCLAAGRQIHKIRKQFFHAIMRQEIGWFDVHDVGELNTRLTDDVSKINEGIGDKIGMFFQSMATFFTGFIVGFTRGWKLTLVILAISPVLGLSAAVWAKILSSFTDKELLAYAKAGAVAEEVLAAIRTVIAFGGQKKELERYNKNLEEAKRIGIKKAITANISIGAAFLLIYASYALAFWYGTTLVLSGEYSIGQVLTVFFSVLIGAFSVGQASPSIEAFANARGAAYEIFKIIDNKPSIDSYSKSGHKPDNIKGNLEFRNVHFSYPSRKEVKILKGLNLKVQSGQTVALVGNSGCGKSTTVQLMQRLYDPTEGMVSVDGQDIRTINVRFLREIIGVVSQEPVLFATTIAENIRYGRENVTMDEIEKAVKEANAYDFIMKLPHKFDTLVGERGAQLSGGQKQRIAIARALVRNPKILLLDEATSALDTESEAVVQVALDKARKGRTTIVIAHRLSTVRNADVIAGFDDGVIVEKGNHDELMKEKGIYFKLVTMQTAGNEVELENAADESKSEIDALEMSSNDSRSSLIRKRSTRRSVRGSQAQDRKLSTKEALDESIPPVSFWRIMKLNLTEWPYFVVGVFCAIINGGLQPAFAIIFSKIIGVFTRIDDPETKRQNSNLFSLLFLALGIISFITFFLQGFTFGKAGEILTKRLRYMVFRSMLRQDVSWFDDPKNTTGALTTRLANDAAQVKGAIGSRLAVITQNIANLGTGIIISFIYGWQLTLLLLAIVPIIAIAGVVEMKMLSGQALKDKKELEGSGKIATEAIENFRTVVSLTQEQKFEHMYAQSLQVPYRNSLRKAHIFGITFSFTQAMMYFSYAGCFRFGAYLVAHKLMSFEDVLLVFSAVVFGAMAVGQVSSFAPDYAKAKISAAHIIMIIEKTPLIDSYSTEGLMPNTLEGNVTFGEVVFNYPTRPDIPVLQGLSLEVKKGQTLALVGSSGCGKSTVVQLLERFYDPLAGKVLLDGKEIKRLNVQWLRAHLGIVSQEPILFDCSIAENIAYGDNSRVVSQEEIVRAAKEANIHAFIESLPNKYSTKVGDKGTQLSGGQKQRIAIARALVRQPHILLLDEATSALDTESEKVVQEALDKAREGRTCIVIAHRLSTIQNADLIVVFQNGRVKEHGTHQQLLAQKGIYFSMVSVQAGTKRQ
Protocol for P-glycoprotein (P-gp): Transport studies. Caco-2 monolayers were rinsed twice with KRB to remove the cell culture medium. Fresh KRB (pH 7.4) was filled into the acceptor compartment and the transport solution (test substance in KRB at pH 7.4) into the donor compartment. The cells were equilibrated for 30 min in a CO2 incubator at 37 °C and stayed there between the sample collection points. After pre-incubation, samples were taken from the donor and acceptor compartment, respectively. The concentration of test compound in the donor compartment was defined as initial donor concentration. At 0 min, 30 min, 60 min, 90 min and 120 min 100 µL samples were drawn from the acceptor compartment. The amount of solution removed was replaced by fresh, pre-warmed KRB. At the final pull point, samples were retrieved from the donor compartment, too. All tests were carried out in triplicate. For studies including the P-glycoprotein (P-gp) inhibitor cyclosporin A and the marker compound for P-gp transport inhibitors, [^3H]-digoxin the substances were applied to both the donor and acceptor compartment in the same concentration. […]
[^3H]-propranolol and [^3H]-digoxin were quantified by liquid scintillation counting. […] After an equilibration period of at least 1 h radiation was measured for 2 min per well in a scintillation counter. The recorded counts in a blank sample were subtracted from the value of each test sample.
Data of the permeability study were calculated using MS Excel (Microsoft, Redmond, WA, USA). Apparent permeability coefficient (Papp) was calculated according to the following equation: Papp=ΔQ 1 1/Δt m0 A VD(cm·s^−1) where ΔQ/Δt is the permeability rate (steady state transport rate) obtained from the profile of the transported mass or radioactivity of substrate versus time (µg or dpm·s^−1). Calculated by the linear regression of time and concentration. A is the area of the exposed cell monolayer (cm^2), m0 is the initial mass or radioactivity of test compound in the donor compartment (µg or dpm), and VD is the buffer volume of donor compartment. […]

Regarding `C[C@H]1O[C@@H](O[C@H]2[C@@H](O)C[C@H](O[C@H]3[C@@H](O)C[C@H](O[C@H]4CC[C@@]5(C)[C@H](CC[C@@H]6[C@@H]5C[C@@H](O)[C@]5(C)[C@@H](C7=CC(=O)OC7)CC[C@]65O)C4)O[C@@H]3C)O[C@@H]2C)C[C@H](O)[C@@H]1O` [[^3H]-digoxin, reference compound], the “Bi-directional transport in presence of enisamium iodide” value on P-glycoprotein (P-gp) was “transported much more in the ba direction as compared to the ab”.
`O=C1OC2(c3ccc(O)cc3Oc3cc(O)ccc32)c2ccccc21` [fluorescein, reference compound]: in data set [1], the Papp A→B at 120 min was 0.18 ×10⁻⁶ cm/s.
With `CC(C)NCC(O)COc1cccc2ccccc12` (stereo not shown) [propranolol, reference compound], the Papp A→B at 120 min in data set [1] was 19.6 ×10⁻⁶ cm/s.
With `COC(=O)c1ccccc1-c1c2ccc(=N)cc-2oc2cc(N)ccc12` [rhodamine 123, reference compound], the efflux ratio at 120 min in data set [1] (pH 7.4, Caco-2, efflux ratio, monolayer qualification marker, read-out: Papp (BA)/Papp (AB)) stood at 17.1. In data set [1] (pH 7.4, Caco-2, monolayer qualification marker), this compound had a Papp B→A at 120 min of 4.5 ×10⁻⁶ cm/s.
In the case of `CCCCCCCCCCCCOS(=O)(=O)[O-].[Na+]` [sodium dodecyl sulfate], the TEER after recovery with Caco-2 cells (growth medium within 24 h) was 118 Ω·cm^2. The TEER after exposure with Caco-2 cells (immediate and remaining reduction) is listed as < 108 Ω·cm^2.
